The text below walks through data of patent US20110110886A1, “SMALL MOLECULE INHIBITORS OF AUTOTAXIN AND METHODS OF USE” (Yale University, priority 2008, published 2011).

Entries after “also recorded” stand apart in the source; their conditions may differ.

One series has as its system A2058 melanoma cells. Description: Matrigel cell invasion assay, melanoma cells. Type of series: cell-based, human. The following applies: A2058, 50 nM ATX. Here is the method:
All cell media was supplemented with 10% (v/v) fetal calf serum (FCS) (Gibco) and 1% (v/v) L-glutamine (Gibco) and grown at 37° C. in a humidified atmosphere containing 5% CO2.
(§1) Cell invasion assays: Matrigel matrix (1 mg/ml, Becton Dickenson) was added to […] gelatin-coated membranes placed in cell culture inserts (BD Falcon) and allowed to set for 24 hours at room temperature. The inserts were placed into companion 24 well plates (BD Falcon), and chemo-attractants (ATX ±inhibitors) and/or controls were added to the bottom of the wells. Cells (1×10^6) were added to the inserts and incubated for 3 hours at 37° C. Following incubation, the inserts were removed, fixed in 100% methanol, stained with DiffQuick solution, and mounted on glass slides. Non-invading cells were removed by scraping away the matrigel, and migrating cells were quantitated by counting cell number per high-powered field.

Another series addresses T1, ATX lyso-PLD activity (Homo sapiens, UniProt Q13822).
T1 construct: consistent with a mature, glycosylated form of the enzyme; TEV cleavage site (C); 9-His (C); 6-His (C); made in house; host or cells: High Five insect cells (baculovirus, p-DEST-8)
Kind of series: Time course assay of ATX lyso-PLD activity (FS-3 fluorescent product) with or without 10 μM compound over 30 minutes. Type of series: biochemical. Particulars: 10 μM inhibitor, 30 minute interval, 300 nM ATX. As for the experimental part:
C. Structure of hexachlorophene, merbromin. Bithionol and their analogs -2,2′-Methylenebis(4-chlorophenol), Eosin Y and RJC 03297, respectively. D. Structure of NSC 48300 and its analogs. […] The assay conditions are 300 nM ATX in the presence or absence of 10 μM compound over 30 minutes.
Inhibitor screen: High throughput screens were performed against two libraries: the GenPlus library of 960 compounds (NINDS Custom Collection, MicroSource Discovery systems) and the NCI Diversity Set (1990 compounds, see http://dtp.nci.nih.gov/branches/dscb/repo_open.html). The screens were performed at the Yale Center for Chemical Genomics utilizing a Tecan Aquarius robot in combination with an Aquarius liquid handler and a Freedom EVO Workstation. A V&P Scientific 384 pin tool transferred small molecules (10 mM stock) from library plates into the optically clear, 384 well assay plates, and an Aquarius liquid handling robot transferred protein into the individual wells. The assays were performed in a total volume of 50 μL in assay buffer (50 mM Tris, 140 mM NaCl, 1 mM MgCl2, and 5 mM CaCl2, pH 8.0). Absorbance of p-nitrophenylate, the product of ATX's PDE activity with pNP-TMP (discussed below) was measured at 405 nm over a period of 12 hours. To monitor lysophospholipase-D activity, the fluorescence of FS-3 (625 nM or 4 μM) was monitored (λex=480 nm, λem=535 nm) in assay buffer over a period of 30 minutes in the presence of 300 nM ATX and 10 μM compound. The assay was evaluated using a statistical Z′ analysis, a quantitative measure to determine assay robustness for single point analysis on a high throughput screening platform. The Z′ analysis was performed from 32 maximum control values (c+) and 32 minimum controls (c−) on each plate. Assays consistently performed with Z′ factors of 0.75-0.85, higher than the minimum 0.5 considered robust.
Inhibition of ATX lyso-PLD activity by several NSC48300 analogs was qualitatively compared in a time course assay by measuring the production of fluorescent product in the presence or absence of 10 µM inhibitor over a 30 minute interval.

For series [1], the system named is ovarian carcinoma cells R182. Description: Matrigel cell invasion assay, primary ovarian cancer cells. The format is cell-based, human. The following applies: 50 nM ATX. As for the experimental part:
Cell culture: Human melanoma cells, A2058 (ATCC), were grown in Dulbecco's Modified Eagle's Medium (DMEM) (Gibco), MeI 28 (ATCC), YUSAC2 (Yale University) and MeI-888 (Yale University) were grown in OptiMEM media (Gibco), and HTB 63 (ATCC) were grown in McKoy's 5a medium (ATCC). Human breast adenocarcinoma cells, MDA-MB-231(ATCC) and ovarian carcinoma cells R182 (Gil Mor, Yale University) were grown in RPMI-1640 (Gibco). All cell media was supplemented with 10% (v/v) fetal calf serum (FCS) (Gibco) and 1% (v/v) L-glutamine (Gibco) and grown at 37° C. in a humidified atmosphere containing 5% CO2.
as §1

The subject of series [2] is melanoma cell line HTB 63. Description: Cell migration assay, melanoma cell line HTB 63. Type of series: cell-based, human. As for the experimental part:
9B. […] All error bars in this figure indicate the standard error of the mean for nine replicates. The addition of LPA to the experimental groups containing inhibitors (LPA rescue) completely abrogated the small molecule inhibitory effect on cell motility (see discussion). […] Cell culture: Human melanoma cells, A2058 (ATCC), were grown in Dulbecco's Modified Eagle's Medium (DMEM) (Gibco), MeI 28 (ATCC), YUSAC2 (Yale University) and MeI-888 (Yale University) were grown in OptiMEM media (Gibco), and HTB 63 (ATCC) were grown in McKoy's 5a medium (ATCC). Human breast adenocarcinoma cells, MDA-MB-231(ATCC) and ovarian carcinoma cells […] (Gil Mor, Yale University) were grown in RPMI-1640 (Gibco). All cell media was supplemented with 10% (v/v) fetal calf serum (FCS) (Gibco) and 1% (v/v) L-glutamine (Gibco) and grown at 37° C. in a humidified atmosphere containing 5% CO2. Cell motility assays: […] Chemo-attractant (ATX ±inhibitor) and/or controls were placed in the lower half of the chamber, and the cells in the upper chamber. […] Non-migrating cells were removed from the membrane by scraping the top surface. The cells were quantitated by counting the cell number per high powered field in the various wells. Treatments were compared using a chi squared test.

The conditions of series [3]: oral doses of 50 mg/kg in 3 divided alternate daily doses for 5 days; rabbits, dogs, and humans; cited from earlier work.

`O=[As](O)(O)c1ccc(Cc2ccc([As](=O)(O)O)cc2)cc1` [NSC 48300]: the “inhibition of ATX-induced stimulation of melanoma cell invasion” value is listed as “inhibited in a dose-dependent manner” with A2058 melanoma cells and “could be reduced” with A2058 melanoma cells (listed as NSC48300). In addition, on ATX lyso-PLD activity, the “less product formation when compared to the enzyme alone” value is given as 98.0%. In addition, in series [1], the “reduction of ATX-stimulated ovarian cancer cell invasion” value was “could be reduced”.
In the case of `Oc1c(Cl)cc(Cl)cc1Sc1cc(Cl)cc(Cl)c1O` [Bithionol], the “inhibition of ATX-induced stimulation of melanoma cell invasion” value with A2058 melanoma cells was “inhibited in a dose-dependent manner; also recorded: could be reduced”. Further, in series [2] (50 nM ATX, 3 hours), the “inhibition of ATX-stimulated HTB63 cell migration” value is listed as “can be inhibited”. The “LPA rescue of inhibited HTB63 cell migration” value in series [2] (excess LPA (75 nM)) is recorded as “rescued by excess LPA”. Further, the “reduction of ATX-stimulated ovarian cancer cell invasion” value in series [1] is reported as “could be reduced”. Further, in series [3], the serum levels was 140 to 550 µM.
